Structures are written as SMILES.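 96-well plates; 48 h exposure; 5 concentrations. Endpoints by linear interpolation between flanking doses. Not reached: highest tested concentration assigned. At the GI50, growth is halved. TGI marks complete inhibition of growth.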

What all share (experiment): NCI-60 cell line screen, 48 h
Assay [1] deals with MDA-MB-435.
Assay [2] relates to MDA-MB-231 breast.
Assay [3] relates to T-47D breast.
Assay [4] relates to TK-10 renal.
Assay [5] concerns OVCAR-8 ovarian.
Assay [6] deals with HS 578T breast.
Assay [7] deals with SW-620 colon.
Assay [8] deals with UACC-62 melanoma.
Assay [9] deals with HT29 colon.
In assay [10] the test system is SN12C renal.

As for `COc1cccc(Cn2c(-c3nonc3NC(C)=O)nc3ccccc32)c1`, the GI50 was 0.642 µM in assay [1]; 3.62 µM in [2]; 6.17 µM in assay [3]; 2.65 µM in assay [4]; 6.3 µM in assay [5]; 1.87 µM in assay [6]. Further, the GI50 in [7] is 3.08 µM; in assay [8] it was 3.37 µM; in assay [9] it was 3.28 µM; in assay [10] it was 5.48 µM. The TGI in assay [1] was 5.48 µM; in assay [2], above 100 µM; in [3], above 100 µM; in [4], 40.8 µM; in assay [5], above 100 µM; in assay [6], 7.24 µM. For the same molecule, the TGI in [7], in assay [8], in [9] and in [10] was above 100 µM each time.

On to `O=C(O)c1c[nH]c2c(OCc3ccccc3)c3ccccc3c(O)c2c1=O`, for which the GI50 in [1] was 2.18 µM; in assay [2], 20.2 µM; in [3], 21.5 µM; in [4], 22.8 µM; in [5] it was 11.8 µM; in assay [6], 33.2 µM. Also, the figures for the GI50 in [8], in [9] and in assay [10] were 3.97 µM, 21.7 µM and 11.3 µM, respectively. The TGI in assay [1] is 4.08 µM; in [2], above 100 µM; in assay [3] it was 73.8 µM; in assay [4] it was 43.4 µM; in assay [5], 40.9 µM; in assay [6] it was 70.1 µM. Moreover, the TGI in [8] worked out at 13.3 µM; in assay [9] it was 58.8 µM; in assay [10], 23.3 µM.

For the molecule `N#C/C(=C1C=C/C(=N\O)C(Cl)=C\1)c1ccccc1`, the GI50 in assay [1] was 0.542 µM; in [2], 2.26 µM; in assay [3], 0.6 µM; in assay [4], 5.12 µM; in assay [5], 2.71 µM; in assay [6] it was 3.58 µM. The GI50 is 1.42 µM in assay [7], 2.8 µM in assay [8], 3.35 µM in assay [9] and 3.19 µM in assay [10]. The TGI in assay [1] was 2.66 µM; in [2], 6.7 µM; in assay [3], 11.3 µM; in assay [4], 16.4 µM; in assay [5], 9.23 µM; in assay [6], 38.5 µM. Also, the TGI in [7] amounted to 12.9 µM; in [8], 18.1 µM; in [9], 10.9 µM; in assay [10], 13 µM.

As to `Cc1c(-c2nnc(-c3ccc(F)cc3)o2)nnn1-c1ccnc2c(C(F)(F)F)cccc12`, the GI50 is 77.6 µM in assay [1]; 29 µM in [2]; 20 µM in [3]; 32.2 µM in [4]; 41.8 µM in assay [5]; 15.5 µM in [6]. Moreover, the GI50 in assay [7] was 31.9 µM; in assay [8] it was above 100 µM; in assay [9] it was 34.4 µM; in assay [10] it was 41.3 µM. Moreover, the TGI was above 100 µM in [1]; above 100 µM in assay [2]; above 100 µM in assay [3]; 98.8 µM in assay [4]; above 100 µM in assay [5]; 53.9 µM in [6]. Further, the TGI in assay [7], in assay [8], in assay [9] and in assay [10] was above 100 µM each time.

Turning to `O=C(O)CP(=O)(O)O`, the TGI in assay [1], in assay [2], in [3], in [4], in [5] and in [6] was above 100 µM in each case. Further, the TGI in assay [7], in [8], in assay [9] and in assay [10] was above 100 µM in each case.

With `Cn1ccnc1C(=O)/C=C/c1ccc(CC(=O)Nc2ccc(F)cc2)cc1`, the GI50 in [1] was 4.25 µM; in [2] it was 2.96 µM; in assay [3], 8.34 µM; in [4] it was 10.5 µM; in assay [5], 5.71 µM; in [6] it was 15 µM. Further, the GI50 in assay [7] is 1.97 µM; in [8] it was 3.51 µM; in [9] it was 2.27 µM; in [10] it was 1.62 µM. In addition, the TGI is 14.9 µM in assay [1]; 12.8 µM in assay [2]; above 25 µM in assay [3]; above 25 µM in [4]; above 25 µM in [5]; above 25 µM in [6]. For the same molecule, the TGI in assay [7] was 12 µM; in assay [8] it was 7.75 µM; in assay [9], 8.21 µM; in assay [10] it was 6.26 µM.

Take `N#Cc1c(N)nc(NCc2ccccc2)c(C#N)c1-c1ccccc1Cl`: the GI50 in [1] is 21.8 µM; in assay [2], 5.76 µM; in assay [3], 67.3 µM; in assay [4], 22.3 µM; in assay [5] it was 11.4 µM; in assay [6], 11.3 µM. In addition, the GI50 in assay [7] was 18.9 µM; in assay [8] it was 12.4 µM; in assay [9] it was 73.4 µM; in [10], 4.53 µM. The TGI in assay [1] is above 100 µM; in [2], 33.8 µM; in assay [3], above 100 µM; in assay [4], 66 µM; in [5], above 100 µM; in assay [6], 43 µM. Besides, the TGI is above 100 µM in assay [7], 60.2 µM in assay [8], above 100 µM in assay [9] and 25.1 µM in [10].

On to `OCC1OC2OC3C(CO)OC(OC4C(CO)OC(OC5C(CO)OC(OC6C(CO)OC(OC7C(CO)OC(OC1C(O)C2O)C(O)C7O)C(O)C6O)C(O)C5O)C(O)C4O)C(O)C3O` (stereo unspecified) (tested in a mixture with another compound), for which the TGI is 40.7 µM in assay [1]; above 100 µM in [2]; above 100 µM in assay [3]; above 100 µM in [4]; above 100 µM in assay [5]; above 100 µM in [6]. In addition, the TGI in [7], in assay [8], in [9] and in [10] was above 100 µM each time.

With `CC1(C)N=C(N)N=C(N)N1c1cccc(CCCCOc2ccccc2)c1`, the GI50 in assay [1] was below 0.0194 µM; in [2] it was 0.881 µM; in assay [3], 1.62 µM; in assay [4], 0.197 µM; in assay [5], 0.465 µM; in assay [6] it was 10.2 µM. For the same molecule, the GI50 was 0.0164 µM in [7], 0.0467 µM in assay [8], below 0.01 µM in assay [9] and 0.14 µM in [10]. In addition, the TGI in assay [1] was 25 µM; in [2] it was 48.6 µM; in [3], 30.1 µM; in [4], 62.6 µM; in assay [5], above 100 µM; in assay [6], 37.3 µM. For the same molecule, the TGI in [7] was above 100 µM; in assay [8], 13.7 µM; in [9], 15.7 µM; in [10], 46.1 µM.

Regarding `O=C(Cc1ccccc1)NC(c1ccc(Cl)cc1)c1c(O)ccc2ccccc12` (stereo unspecified), the GI50 is 2.91 µM in assay [1]; 1.98 µM in [2]; 3.65 µM in assay [3]; 4.17 µM in [4]; 3.56 µM in [5]; 2.81 µM in [6]. Moreover, the GI50 in assay [7] was 3.22 µM; in [8], 2.25 µM; in assay [9], 3.74 µM; in assay [10], 2.99 µM. In addition, the TGI amounted to 10.7 µM in assay [1]; 4.73 µM in assay [2]; 13.8 µM in assay [3]; 13.2 µM in assay [4]; 16.9 µM in assay [5]; 13.8 µM in assay [6]. The TGI turned out to be 13.4 µM in [7], 6.07 µM in assay [8], 11.3 µM in [9] and 11.5 µM in assay [10].

Turning to `O=S(=O)(CCNCc1ccc(-c2ccc3ncnc(Nc4ccc(OCc5cccc(F)c5)c(Cl)c4)c3c2)o1)c1ccccc1`, the GI50 in assay [1] was above 25 µM; in assay [2], above 25 µM; in assay [3], 2.21 µM; in assay [4] it was above 13.2 µM; in assay [5], above 25 µM; in assay [6], above 25 µM. Moreover, the GI50 in assay [7], in [8], in assay [9] and in assay [10] was above 25 µM throughout. Moreover, the TGI in assay [1], in assay [2], in assay [3], in assay [4], in assay [5] and in [6] was above 25 µM throughout. Further, the TGI in assay [7], in assay [8], in [9] and in assay [10] was above 25 µM in each case.

In the case of `COC1=CC(c2ccc[nH]2)=N/C1=C\c1[nH]c(C)c(C(C)=O)c1C`, the GI50 is 0.299 µM in assay [1]; 2.75 µM in [3]; 1.06 µM in assay [4]; 0.326 µM in [5]; 0.552 µM in assay [6]; 0.0605 µM in assay [7]. For the same molecule, the GI50 was 0.088 µM in assay [9] and 4.46 µM in assay [10]. For the same molecule, the TGI was above 100 µM in assay [1]; 19.2 µM in assay [3]; above 63.5 µM in [4]; above 100 µM in assay [5]; above 100 µM in assay [6]; above 100 µM in [9]. Besides, in assay [10], the TGI was above 100 µM.

With `CS(=O)(=O)c1ccc(Oc2cc(F)cc(C#N)c2)c2c1[C@H](O)C(F)(F)C2`, the GI50 in assay [1], in assay [2], in [3], in assay [4], in assay [5] and in assay [6] was above 100 µM throughout. Also, the GI50 in assay [7], in [9] and in assay [10] was above 100 µM in each case. The TGI in assay [1], in assay [2], in assay [3], in assay [4], in [5] and in assay [6] was above 100 µM in each case. Further, the TGI in assay [7], in assay [9] and in assay [10] was above 100 µM each time.

Take `CCN(CC)CCCC(Cc1ccccc1)Nc1c2ccc(Cl)cc2nc2ccc(OC)cc12` (stereo unspecified): the GI50 in assay [1] is 1.5 µM; in [2], 1.65 µM; in [3] it was 1.97 µM; in assay [4], 1.68 µM; in [5], 2.34 µM; in [7], 1.77 µM. The GI50 is 1.95 µM in assay [8], 1.41 µM in assay [9] and 2.92 µM in assay [10]. Further, the TGI in assay [1] came to 2.89 µM; in [2], 3.7 µM; in assay [3] it was 4.16 µM; in assay [4], 3.31 µM; in [5] it was 5.26 µM; in [7], 3.81 µM. In addition, the TGI in assay [8] was found to be 3.64 µM; in assay [9] it was 3.57 µM; in assay [10], 10.2 µM.

With `O=C1CC[C@H](c2ccc(O)c3c2C(=O)[C@@H]2O[C@@H]2C3=O)c2cccc(O)c21`, the GI50 is 1.92 µM in [1]; 1.27 µM in assay [3]; 1.49 µM in assay [4]; 3.36 µM in assay [5]; 3.78 µM in assay [6]; 1.6 µM in assay [7]. Also, the results for the GI50 in [8] and in assay [9] were 1.75 µM and 2.33 µM, respectively. The TGI in assay [1] was determined as 4.2 µM; in [3], 3.81 µM; in assay [4] it was 2.93 µM; in assay [5] it was 11.2 µM; in [6], 97.2 µM; in [7], 4.92 µM. For the same molecule, the figures for the TGI in assay [8] and in assay [9] were 3.73 µM and 6.3 µM, respectively.

Regarding `COc1ccc(-c2nc(N3CCOCC3)c3sc(CN(C)c4ncc(C(=O)NO)cn4)cc3n2)cn1`, the GI50 was below 0.01 µM in assay [1]; 0.0282 µM in assay [2]; below 0.01 µM in assay [3]; below 0.01 µM in [5]; below 0.0122 µM in [6]; below 0.01 µM in assay [7]. In addition, the GI50 in [9] was below 0.01 µM; in [10], 0.0168 µM. For the same molecule, the TGI was determined as 0.0284 µM in [1]; 0.331 µM in [2]; 0.0332 µM in assay [3]; 0.222 µM in assay [5]; 0.155 µM in [6]; 1.41 µM in assay [7]. For the same molecule, the TGI in assay [9] came out at 0.0331 µM; in assay [10], 1.27 µM.
